Results from patent US9758529B2, “Fused dihydro-4H-pyrazolo[5,1-C][1,4]oxazinyl compounds and analogs for treating CNS disorders” (Sunovion Pharmaceuticals Inc., priority 2015, dated 2017).

Test system: mice
Assay: Neuropharmacological Assay (SmartCube)
Format: in vivo
Settings: i.p. 15 min before behavioral test; 3 doses, most efficacious dose(s) presented
Source text: Neurosci. […] As reported in Roberds, because psychiatric diseases generally result from disorders of cell-cell communication or circuitry, intact systems are useful in detecting improvement in disease-relevant endpoints. These endpoints are typically behavioral in nature, often requiring human observation and interpretation. To facilitate testing of multiple compounds for behavioral effects relevant to psychiatric disease, PsychoGenics, Inc. (Tarrytown, N.Y., “PGI”) developed SmartCube™, an automated system in which behaviors of compound-treated mice are captured by digital video and analyzed with computer algorithms. […] PGI Analytical Systems uses data from SmartCube™ to compare the behavioral signature of a test compound to a database of behavioral signatures obtained using a large set of diverse reference compounds. (The composition of the database as well as validation of the method is further described in Roberds). In this way, the neuropharmacological effects of a test compound can be predicted by similarity to major classes of compounds, such as antipsychotics, anxiolytics and antidepressants.
The SmartCube™ system produces an activity signature indicating the probability that the activity of the test compound at the administered dose matches a given class of neuropharmacological agents. (See, e.g., Roberds, FIGS. 2 and 3). The test compound is simultaneously compared against multiple classes of agents; thus, a separate probability is generated for each behavioral effect measured (e.g., anxiolytic activity, analgesic activity, etc.). In Table 2 and 2B, these probabilities are reported for each behavioral effect measured as follows:
where LOQ is the limit of quantification.
Provided compounds were dissolved in a mixture of Pharmasolve™ (N-methyl-2-pyrrolidone), polyethylene glycol and propylene glycol, and were injected i.p. 15 min. before the behavioral test. For each compound, injections were administered at 3 different doses. For each behavioral effect measured, results for the most efficacious dose(s) are presented.

## Cl.c1ccc2c3n(nc2c1)CCO[C@@H]3[C@@H]1COCCN1 (racemic) [Compound 45, (+/−)—(S)-3-((R)-3,4-dihydro-1H-[1,4]oxazino[4,3-b]indazol-1-yl)morpholin-4-ium chloride]
  AD: ADHD (probability of class match): + (LOQ≦ + <5%)
  AG: analgesic (probability of class match): + (LOQ≦ + <5%)
  AX: anxiolytic (probability of class match): + (LOQ≦ + <5%)
  CE: cognitive enhancer (probability of class match): + (LOQ≦ + <5%)
  DP: anti-depressant (probability of class match): + (LOQ≦ + <5%)
  HA: hallucinogen (probability of class match): + (LOQ≦ + <5%)
  MS: mood stabilizer (probability of class match): + (LOQ≦ + <5%)
  PS: anti-psychotic (probability of class match): + (LOQ≦ + <5%)
  SD: sedative hypnotic (probability of class match): + (LOQ≦ + <5%)
  UN: uncharacterized CNS activity (probability of class match): + (LOQ≦ + <5%)
  XG: anxiogenic (probability of class match): + (LOQ≦ + <5%)

## Cl.c1ccc2c3n(nc2c1)CCO[C@H]3[C@@H]1COCCN1 (racemic) [Compound 46, (+/−)—(S)-3-((S)-3,4-dihydro-1H-[1,4]oxazino[4,3-b]indazol-1-yl)morpholin-4-ium chloride]
  AD: ADHD (probability of class match): + (LOQ≦ + <5%)
  AG: analgesic (probability of class match): ++ (5%≦ ++ <25%)
  AX: anxiolytic (probability of class match): ++ (5%≦ ++ <25%)
  CE: cognitive enhancer (probability of class match): + (LOQ≦ + <5%)
  DP: anti-depressant (probability of class match): + (LOQ≦ + <5%)
  HA: hallucinogen (probability of class match): + (LOQ≦ + <5%)
  MS: mood stabilizer (probability of class match): + (LOQ≦ + <5%)
  PS: anti-psychotic (probability of class match): ++ (5%≦ ++ <25%)
  SD: sedative hypnotic (probability of class match): ++ (5%≦ ++ <25%)
  UN: uncharacterized CNS activity (probability of class match): ++ (5%≦ ++ <25%)
  XG: anxiogenic (probability of class match): + (LOQ≦ + <5%)

## CN1CCOC[C@H]1[C@H]1OCCn2nc3ccccc3c21 (racemic) [Compound 47, (+/−)-(3S,4R)-3-((R)-3,4-dihydro-1H-[1,4]oxazino[4,3-b]indazol-1-yl)-4-methylmorpholin-4-ium chloride]
  AD: ADHD (probability of class match): + (LOQ≦ + <5%)
  AG: analgesic (probability of class match): ++ (5%≦ ++ <25%)
  AX: anxiolytic (probability of class match): ++ (5%≦ ++ <25%)
  CE: cognitive enhancer (probability of class match): + (LOQ≦ + <5%)
  DP: anti-depressant (probability of class match): + (LOQ≦ + <5%)
  HA: hallucinogen (probability of class match): + (LOQ≦ + <5%)
  MS: mood stabilizer (probability of class match): + (LOQ≦ + <5%)
  PS: anti-psychotic (probability of class match): + (LOQ≦ + <5%)
  SD: sedative hypnotic (probability of class match): + (LOQ≦ + <5%)
  UN: uncharacterized CNS activity (probability of class match): + (LOQ≦ + <5%)
  XG: anxiogenic (probability of class match): + (LOQ≦ + <5%)

## CN1CCOC[C@H]1[C@@H]1OCCn2nc3ccccc3c21 (racemic) [Compound 48, (+/−)-(3S,4R)-3-((S)-3,4-dihydro-1H-[1,4]oxazino[4,3-b]indazol-1-yl)-4-methylmorpholin-4-ium chloride]
  AD: ADHD (probability of class match): + (LOQ≦ + <5%)
  AG: analgesic (probability of class match): + (LOQ≦ + <5%)
  AX: anxiolytic (probability of class match): + (LOQ≦ + <5%)
  CE: cognitive enhancer (probability of class match): + (LOQ≦ + <5%)
  DP: anti-depressant (probability of class match): + (LOQ≦ + <5%)
  HA: hallucinogen (probability of class match): + (LOQ≦ + <5%)
  MS: mood stabilizer (probability of class match): + (LOQ≦ + <5%)
  PS: anti-psychotic (probability of class match): + (LOQ≦ + <5%)
  SD: sedative hypnotic (probability of class match): + (LOQ≦ + <5%)
  UN: uncharacterized CNS activity (probability of class match): + (LOQ≦ + <5%)
  XG: anxiogenic (probability of class match): + (LOQ≦ + <5%)

## C[C@@H](N)[C@H]1OCCn2nc3ccccc3c21.Cl (relative stereo) [Compound 30, (+/−)-rel-(R)-1-((R)-3,4-dihydro-1H-[1,4]oxazino[4,3-b]indazol-1-yl) ethanaminium chloride]
  AD: ADHD (probability of class match): ++ (5%≦ ++ <25%)
  AG: analgesic (probability of class match): ++ (5%≦ ++ <25%)
  AX: anxiolytic (probability of class match): +++ (25%≦ +++ <50%)
  CE: cognitive enhancer (probability of class match): + (LOQ≦ + <5%)
  DP: anti-depressant (probability of class match): ++ (5%≦ ++ <25%)
  HA: hallucinogen (probability of class match): ++ (5%≦ ++ <25%)
  MS: mood stabilizer (probability of class match): + (LOQ≦ + <5%)
  PS: anti-psychotic (probability of class match): + (LOQ≦ + <5%)
  SD: sedative hypnotic (probability of class match): + (LOQ≦ + <5%)
  UN: uncharacterized CNS activity (probability of class match): + (LOQ≦ + <5%)
  XG: anxiogenic (probability of class match): + (LOQ≦ + <5%)

## CN[C@H](C)[C@H]1OCCn2nc3ccccc3c21.Cl (relative stereo) [Compound 31, (+/−)-rel-(R)-1-((R)-3,4-dihydro-1H-[1,4]oxazino[4,3-b]indazol-1-yl)-N-methylethanaminium chloride]
  AD: ADHD (probability of class match): + (LOQ≦ + <5%)
  AG: analgesic (probability of class match): ++ (5%≦ ++ <25%)
  AX: anxiolytic (probability of class match): +++ (25%≦ +++ <50%)
  CE: cognitive enhancer (probability of class match): ++ (5%≦ ++ <25%)
  DP: anti-depressant (probability of class match): ++ (5%≦ ++ <25%)
  HA: hallucinogen (probability of class match): + (LOQ≦ + <5%)
  MS: mood stabilizer (probability of class match): + (LOQ≦ + <5%)
  PS: anti-psychotic (probability of class match): ++ (5%≦ ++ <25%)
  SD: sedative hypnotic (probability of class match): + (LOQ≦ + <5%)
  UN: uncharacterized CNS activity (probability of class match): +++ (25%≦ +++ <50%)
  XG: anxiogenic (probability of class match): + (LOQ≦ + <5%)

## C[C@H]([C@H]1OCCn2nc3ccccc3c21)N(C)C.Cl (relative stereo) [Compound 32, (+/−)-rel-(R)-1-((R)-3,4-dihydro-1H-[1,4]oxazino[4,3-b]indazol-1-yl)-N,N-dimethylethanaminium chloride]
  AD: ADHD (probability of class match): + (LOQ≦ + <5%)
  AG: analgesic (probability of class match): + (LOQ≦ + <5%)
  AX: anxiolytic (probability of class match): ++ (5%≦ ++ <25%)
  CE: cognitive enhancer (probability of class match): ++ (5%≦ ++ <25%)
  DP: anti-depressant (probability of class match): ++ (5%≦ ++ <25%)
  HA: hallucinogen (probability of class match): + (LOQ≦ + <5%)
  MS: mood stabilizer (probability of class match): + (LOQ≦ + <5%)
  PS: anti-psychotic (probability of class match): +++ (25%≦ +++ <50%)
  SD: sedative hypnotic (probability of class match): + (LOQ≦ + <5%)
  UN: uncharacterized CNS activity (probability of class match): ++ (5%≦ ++ <25%)
  XG: anxiogenic (probability of class match): + (LOQ≦ + <5%)

## C[C@H](N)[C@H]1OCCn2nc3ccccc3c21 (relative stereo) [Compound 33, (+/−)-rel-(R)-1-((S)-3,4-dihydro-1H-[1,4]oxazino[4,3-b]indazol-1-yl) ethanaminium chloride]
  AD: ADHD (probability of class match): ++++ (50%≦ ++++)
  AG: analgesic (probability of class match): ++ (5%≦ ++ <25%)
  AX: anxiolytic (probability of class match): ++ (5%≦ ++ <25%)
  CE: cognitive enhancer (probability of class match): + (LOQ≦ + <5%)
  DP: anti-depressant (probability of class match): ++ (5%≦ ++ <25%)
  HA: hallucinogen (probability of class match): ++ (5%≦ ++ <25%)
  MS: mood stabilizer (probability of class match): + (LOQ≦ + <5%)
  PS: anti-psychotic (probability of class match): + (LOQ≦ + <5%)
  SD: sedative hypnotic (probability of class match): + (LOQ≦ + <5%)
  UN: uncharacterized CNS activity (probability of class match): +++ (25%≦ +++ <50%)
  XG: anxiogenic (probability of class match): + (LOQ≦ + <5%)

## CN[C@@H](C)[C@H]1OCCn2nc3ccccc3c21 (relative stereo) [Compound 34, (+/−)-rel-(R)-1-((S)-3,4-dihydro-1H-[1,4]oxazino[4,3-b]indazol-1-yl)-N-methylethanaminium chloride]
  AD: ADHD (probability of class match): + (LOQ≦ + <5%)
  AG: analgesic (probability of class match): + (LOQ≦ + <5%)
  AX: anxiolytic (probability of class match): ++ (5%≦ ++ <25%)
  CE: cognitive enhancer (probability of class match): + (LOQ≦ + <5%)
  DP: anti-depressant (probability of class match): + (LOQ≦ + <5%)
  HA: hallucinogen (probability of class match): + (LOQ≦ + <5%)
  MS: mood stabilizer (probability of class match): + (LOQ≦ + <5%)
  PS: anti-psychotic (probability of class match): + (LOQ≦ + <5%)
  SD: sedative hypnotic (probability of class match): + (LOQ≦ + <5%)
  UN: uncharacterized CNS activity (probability of class match): + (LOQ≦ + <5%)
  XG: anxiogenic (probability of class match): + (LOQ≦ + <5%)

## CNC[C@@H]1OCCn2nc3ccccc3c21 [Compound 1, (S)-(3,4-dihydro-1H-[1,4]oxazino[4,3-b]indazol-1-yl)-N-methylmethanaminium chloride]
  AD: ADHD (probability of class match): + (LOQ≦ + <5%)
  AG: analgesic (probability of class match): + (LOQ≦ + <5%)
  AX: anxiolytic (probability of class match): ++ (5%≦ ++ <25%)
  CE: cognitive enhancer (probability of class match): + (LOQ≦ + <5%)
  DP: anti-depressant (probability of class match): + (LOQ≦ + <5%)
  HA: hallucinogen (probability of class match): + (LOQ≦ + <5%)
  MS: mood stabilizer (probability of class match): + (LOQ≦ + <5%)
  PS: anti-psychotic (probability of class match): + (LOQ≦ + <5%)
  SD: sedative hypnotic (probability of class match): + (LOQ≦ + <5%)
  UN: uncharacterized CNS activity (probability of class match): + (LOQ≦ + <5%)
  XG: anxiogenic (probability of class match): + (LOQ≦ + <5%)
